Experiment [1] has as its target rNaV1.4 (Rattus norvegicus, UniProt P15390). Description: whole-cell patch clamp, three pulse train. It counts as cell-based. A general note: Patch clamp records ionic current or voltage across a cell membrane.
Experiment [2] addresses rNaV1.4 (Rattus norvegicus, UniProt P15390, F1579A). Description: whole-cell patch clamp, three pulse train. It counts as cell-based.

rNaV1.4 (Rattus norvegicus, UniProt P15390), sequence (P15390 whole entry): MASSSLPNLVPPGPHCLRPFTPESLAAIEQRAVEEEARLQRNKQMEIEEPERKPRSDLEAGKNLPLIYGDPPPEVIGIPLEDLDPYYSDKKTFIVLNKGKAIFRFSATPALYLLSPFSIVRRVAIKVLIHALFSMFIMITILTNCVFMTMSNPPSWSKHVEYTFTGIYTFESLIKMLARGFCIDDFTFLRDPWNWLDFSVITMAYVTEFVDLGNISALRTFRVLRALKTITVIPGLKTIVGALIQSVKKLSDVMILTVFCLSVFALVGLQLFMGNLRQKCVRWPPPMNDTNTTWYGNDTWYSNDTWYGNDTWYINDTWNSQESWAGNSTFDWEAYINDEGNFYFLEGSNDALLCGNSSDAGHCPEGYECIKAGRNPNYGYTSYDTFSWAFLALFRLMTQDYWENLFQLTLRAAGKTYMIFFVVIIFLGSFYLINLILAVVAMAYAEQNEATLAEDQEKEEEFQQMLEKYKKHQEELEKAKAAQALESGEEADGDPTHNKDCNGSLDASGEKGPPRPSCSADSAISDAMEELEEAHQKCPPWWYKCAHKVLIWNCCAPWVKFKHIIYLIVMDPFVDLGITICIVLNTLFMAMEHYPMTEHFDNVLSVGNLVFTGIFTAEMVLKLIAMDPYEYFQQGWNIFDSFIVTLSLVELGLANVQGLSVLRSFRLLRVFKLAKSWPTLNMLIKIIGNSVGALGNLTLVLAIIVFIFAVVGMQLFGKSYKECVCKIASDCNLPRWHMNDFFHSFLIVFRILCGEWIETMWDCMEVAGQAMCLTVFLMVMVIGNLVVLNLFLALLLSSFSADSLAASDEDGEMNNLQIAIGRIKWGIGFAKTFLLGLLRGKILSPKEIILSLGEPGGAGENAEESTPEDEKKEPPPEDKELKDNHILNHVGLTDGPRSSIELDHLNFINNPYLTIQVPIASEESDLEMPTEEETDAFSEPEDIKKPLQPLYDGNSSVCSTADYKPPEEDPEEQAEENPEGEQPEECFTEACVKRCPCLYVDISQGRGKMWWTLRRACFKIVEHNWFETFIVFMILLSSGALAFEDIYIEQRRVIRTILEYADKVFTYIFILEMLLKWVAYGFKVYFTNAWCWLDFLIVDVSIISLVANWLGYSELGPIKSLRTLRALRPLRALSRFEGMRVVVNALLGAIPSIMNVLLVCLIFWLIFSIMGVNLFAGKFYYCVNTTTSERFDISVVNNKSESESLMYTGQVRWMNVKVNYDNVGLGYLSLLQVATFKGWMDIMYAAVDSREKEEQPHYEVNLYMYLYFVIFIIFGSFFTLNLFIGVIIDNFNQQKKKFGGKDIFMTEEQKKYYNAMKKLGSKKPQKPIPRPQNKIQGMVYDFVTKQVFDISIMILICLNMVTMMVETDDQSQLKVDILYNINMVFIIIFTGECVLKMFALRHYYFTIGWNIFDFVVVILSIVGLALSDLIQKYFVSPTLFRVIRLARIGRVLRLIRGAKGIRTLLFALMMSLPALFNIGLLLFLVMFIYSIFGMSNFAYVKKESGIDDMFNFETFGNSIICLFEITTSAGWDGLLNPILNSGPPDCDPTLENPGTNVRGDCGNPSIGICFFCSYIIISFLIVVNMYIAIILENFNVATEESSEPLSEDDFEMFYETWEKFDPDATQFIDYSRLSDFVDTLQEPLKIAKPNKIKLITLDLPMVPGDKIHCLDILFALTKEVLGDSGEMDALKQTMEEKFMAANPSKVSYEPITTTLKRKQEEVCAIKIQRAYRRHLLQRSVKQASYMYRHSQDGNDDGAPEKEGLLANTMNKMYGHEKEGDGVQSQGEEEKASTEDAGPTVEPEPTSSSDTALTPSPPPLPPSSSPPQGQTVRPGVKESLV
rNaV1.4 (Rattus norvegicus, UniProt P15390, F1579A), sequence (P15390 whole entry F1579A): as the sequence (P15390 whole entry) above, with F1579A counted along it

Consider `Nc1nc2ccc(OC(F)(F)F)cc2s1` [riluzole], for which the figures for the IC50 against rNaV1.4 [1] and at rNaV1.4 [2] were 3.98 ± 1.32 µM and 114 ± 20 µM, respectively.

(Values after paper doi:10.1101/2020.05.05.078071v1 (biorxiv, 2020).)
